{
  "source": "patent US7442375B2",
  "about": "“Compositions of beta-defensin inducing agents” (Case Western Reserve University, priority 2002, dated 2008)",
  "key": {"hBD-2 mRNA [1]": {"test_system": "hBD-2 mRNA", "settings": "1.7 mM in culture medium, epidermal cells; cited from earlier work"}, "hBD-3 mRNA [2]": {"test_system": "hBD-3 mRNA", "settings": "1.7 mM in culture medium, epidermal cells; cited from earlier work"}, "[3]": {"test_system": "epithelial beta defensin genes", "settings": "appears to involve NF-kappaB/rel; cited from earlier work"}, "hBD-1 mRNA": {"test_system": "hBD-1 mRNA", "assay": "Real-time RT-PCR assay to quantify hBD mRNA in NHOEC", "assay_type": "cell-based", "settings": "normal human oral epithelium and cells; positive control of FIG. 3", "method": "(§1) NHOEC monolayers were exposed to X4 HIV-1 strains B-HXB2 and B-NL4-3 or R5 strains B-93US142 and B-92US660 at an MOI of 0.01 infectious unit/cell. After 48 h, hBD-1, -2, and -3 mRNA expression was determined by real-time PCR. (a) Standard curves generated using the relationship of known number of input templates to the cycle threshold (i.e., PCR cycle number at which the mean fluorescence increases to 10 SD above baseline). Cycle threshold is directly proportional to the log of the input copy equivalents. Linear dynamic ranges and regression values are indicated. (b) Quantification of hBD mRNA in the presence and absence of HIV-1. (c) Comparison of hBD expression relative to the uninfected culture. PMA, phorbol myristate acetate, positive control. Results are representative of three independent experiments.\n(§2) RNA was extracted from NHOEC monolayers post HIV-1 challenge [multiplicity of infection (MOI), 0.01 infectious unit/cell] using TRIzol according to the manufacturer's protocol (Invitrogen Life Technologies, Carlsbad, Calif., USA). Human keratin 5 RNA was used to normalize RNA content in each preparation. Intron spanning primers used and PCR conditions for these reactions have been described previously [Krisanaprakorkit et al., 1998 and 2000; Harder et al.]. Each 25-μl PCR mixture consisted of 125 ng RNA, primers (0.4 μM each), 0.4 mM dNTPs, 5 mM MgCl2, a mixture of reverse transcriptase and Taq DNA polymerase, 1 3 PCR buffer, RNase inhibitor (5 U), and SYBR Green dye diluted 1:2500 (Sigma, St. Louis, Mo., USA) as described [Weber et al.]. Standard curves were constructed using RNA generated by transcribing hBD-1, -2, or -3 plasmids using the RiboProbe in vitro transcription system (Promega, Madison, Wis., USA). Concentration of mRNAs was determined by spectrometry at 260 nm. […]\n(§3) NHOEC monolayers were challenged with four different HIV-1 strains representing both viral bio-phenotypes (i.e., SI/X4, B-HXB2 and B-NL4-3; NSI/R5, B-93US142 and B-92US660) Forty-eight hours postinfection, hBD-1, -2, and -3 mRNA expression was measured by real-time PCR. […]"}, "hBD-2 mRNA [4]": {"test_system": "hBD-2 mRNA", "assay": "Real-time RT-PCR assay to quantify hBD mRNA in NHOEC", "assay_type": "cell-based", "settings": "normal human oral epithelium and cells; positive control of FIG. 3", "method": "as §1, §2, §3"}, "hBD-3 mRNA [5]": {"test_system": "hBD-3 mRNA", "assay": "Real-time RT-PCR assay to quantify hBD mRNA in NHOEC", "assay_type": "cell-based", "settings": "normal human oral epithelium and cells; positive control of FIG. 3", "method": "as §1, §2, §3"}, "HIV-1 R5 B-93US142": {"test_system": "HIV-1 R5 B-93US142", "assay_type": "cell-based", "method": "(§4) HIV-1 strains (X4 HXB2 and R5 93US142) were incubated in 10 mM PB with increasing concentrations of hBD and used to infect GHOST X4/R5 cells. (a) Qualitative determination of HIV-1 infection, measured by GFP fluorescence, in the absence (−C) and presence (+C) of virus preincubated in 10 mM PB. (b) Anti-HIV-1 activity of hBD in GHOST X4/R5 cells using fluorescence microscopy. (c) Anti-HIV-1 activity of hBD measured by RT activity in cell-free culture supernatant, relative to the positive control (i.e., HIV-1 infection in the absence of hBD). (d) Antiretroviral activity of hBD against CXCR4- and CCR5-tropic HIV-1 strains in three different environments: DMEM+10% FBS (complete medium); DMEM alone (Medium no FBS); 10 mM PB. Viruses were incubated with 20 μg/ml of each hBD for 1 h in each condition and used to infect CEM X4/R5 cells as described. Results are representative of three independent experiments.\n(§5) HIV-1 isolates were incubated with increasing concentrations (5-40 μg/ml) of hBD-1, -2, and -3, in three different conditions: high salt complete medium (RPMI-1640 or DMEM supplemented with 10% fetal bovine serum, FBS); high salt medium in the absence of FBS; or low salt medium (10 mM phosphate buffer), 37° C. for 1 h. Respective mixtures were used to infect PBMC, Ghost X4/R5 or CEM X4/R5 cells at an MOI of […]. After 2 h incubation at 37° C., 5% CO2, cells were washed three times with phosphate-buffered saline (PBS) and cultured in complete medium for 48 h. In the case of Ghost X4/R5 cells, these were washed, resuspended in PBS, and analyzed by fluorescence microscopy for GFP expression as described [Morner et al.]. Cell-free supernatants from PBMC, Ghost X4/R5 and CEM X4/R5 cultures were used to monitor infectivity by the reverse transcriptase (RT) assay [Quinones-Mateu et al.]. The 50% inhibitory concentration (IC50) of each hBD was determined using X4 or R5 HIV-1 isolates. Viruses (0.01 MOI) were incubated with increasing concentrations of hBD-1, -2, and 3 (up to 40 µg/ml) in low salt medium for 1 h and used to infect CEM X4/R5 cells. After 2 h incubation at 37° C., 5% CO2, cells were washed twice with PBS and cultured in complete medium. Supernatant samples were removed on day 5 post-infection and virus production was measured using […] the RT assay [Id.]. Cytotoxicity of hBD was quantified by determining the number of viable cells using a tetrazolium-based colorimetric (MTT) assay [Pauwels et al.].\n(§6) Since the antibacterial activity of beta-defensins is sensitive to high salt and serum concentrations, the anti-HIV-1 activity of hBD was initially evaluated in a low salt, serum free environment, mimicking oral mucosal conditions [Mandel et al.]. Two HIV-1 isolates (X4 B-HXB2 and R5 B-93US142) were preincubated for 1 h with increasing concentrations of recombinant hBD-1, -2, and -3, in 10 mM phosphate buffer (PB). GHOST CCR5/CXCR4 cells were then exposed to the mixtures for 48 h in complete medium. […] When CXCR4- and CCR5-tropic HIV-1 strains were preincubated with beta-defensins in high salt medium (DMEM) supplemented with 10% FBS, no antiviral effect was detected (FIG. 4d). However, preincubation in DMEM without FBS inhibited replication of X4, but not R5, HIV-1 isolates (FIG. 4d). Under low salt conditions (i.e., 10 mM PB, no FBS) the 50% inhibitory concentration for both agents against X4 and R5 viruses ranged from 9 to 19 μg/ml and 20 to 40 μg/ml, respectively."}, "HIV-1 X4 B-HXB2": {"test_system": "HIV-1 X4 B-HXB2", "assay_type": "cell-based", "method": "as §4, §5, §6"}, "CXCR4": {"target": "CXCR4 (Homo sapiens, UniProt P61073)", "sequence (P61073 whole entry)": "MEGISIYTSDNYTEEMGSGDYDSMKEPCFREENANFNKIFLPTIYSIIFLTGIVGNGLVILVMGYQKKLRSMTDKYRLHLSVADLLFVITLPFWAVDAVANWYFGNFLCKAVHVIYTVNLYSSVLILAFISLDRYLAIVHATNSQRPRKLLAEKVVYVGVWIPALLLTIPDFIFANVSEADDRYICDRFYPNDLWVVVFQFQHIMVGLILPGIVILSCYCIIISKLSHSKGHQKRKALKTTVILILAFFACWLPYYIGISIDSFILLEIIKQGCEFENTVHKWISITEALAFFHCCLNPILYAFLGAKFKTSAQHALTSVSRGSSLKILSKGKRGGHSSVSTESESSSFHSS", "assay": "Flow cytometric analysis of co-receptor surface expression on unstimulated PBMC", "assay_type": "cell-based", "set-up": "endogenous in cells; host or cells: unstimulated peripheral blood mononuclear cells (PBMC)", "settings": "30 μg/ml, 3 h, high salt medium without FBS", "method": "(§7) Unstimulated PBMC were treated for 3 hrs with hBD-1, -2, or -3 (30 μg/ml) in DMEM (high salt) in the absence of FBS. The CXCR4 natural ligand SDF-1AE (2 μg/ml) and the CCR5 antagonist PSC-RANTES (100 nM) were used as positive controls. CXCR4 and CCR5 surface expression was calculated using known ratios of QuantiBRITE-PE beads (Becton Dickenson) by flow cytometry. Results are the means of seven experiments±SD.\n(§8) Unstimulated PBMC were treated with 30 μg/ml hBD-1, -2, or -3 in high salt medium (RPMI-1640) in the absence of FBS, 3 h. The CXCR4 natural ligand SDF-1α (R&D Systems, Minneapolis, Minn., USA) and the CCR5 antagonist PSC-RANTES were used as controls. Cells were incubated with peridinin chlorophyll protein-conjugated anti-human CD4 antibody, and either phycoerythrin (PE)-conjugated anti-human CXCR4 antibody, PE-conjugated anti-human CCR5 antibody, or PE-conjugated mouse immunoglobulin G2a (IgG2a), isotype standard (PharmMingen, San Diego, Calif., USA) [Salkowitz et al.]. Fluorescence intensity was reported as receptor density by quantitative flow cytometry (FACSCaliber; Becton Dickenson, San Jose, Calif., USA) [Iyer et al.]. Data were analyzed using CELLQuest software (Becton Dickenson).\n(§9) Surface expression of CXCR4 was decreased by 51%±18% and 52%±20% (SD) respectively after incubation with 30 μg/ml of hBD-2 or hBD-3 (FIG. 5)."}, "CCR5": {"target": "CCR5 (Homo sapiens, UniProt P51681)", "sequence (P51681 whole entry)": "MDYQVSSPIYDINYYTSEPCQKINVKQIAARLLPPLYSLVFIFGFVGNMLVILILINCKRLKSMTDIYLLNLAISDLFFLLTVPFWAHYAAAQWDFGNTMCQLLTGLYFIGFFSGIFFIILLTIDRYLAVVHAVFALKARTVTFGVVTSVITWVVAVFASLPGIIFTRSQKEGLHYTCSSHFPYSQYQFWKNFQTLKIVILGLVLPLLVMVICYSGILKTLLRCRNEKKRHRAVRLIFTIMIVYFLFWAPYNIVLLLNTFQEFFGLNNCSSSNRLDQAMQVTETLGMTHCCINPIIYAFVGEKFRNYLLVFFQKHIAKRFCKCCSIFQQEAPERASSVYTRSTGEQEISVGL", "assay": "Flow cytometric analysis of co-receptor surface expression on unstimulated PBMC", "assay_type": "cell-based", "set-up": "endogenous in cells; host or cells: unstimulated peripheral blood mononuclear cells (PBMC)", "settings": "30 μg/ml, 3 h, high salt medium without FBS", "method": "as §7, §8, §9"}, "[6]": {"settings": "20 μg/ml, preincubation in 10 mM PB"}, "[7]": {"settings": "virus preincubated 1 h with hBD in 10 mM PB, GHOST cells 48 h, GFP fluorescence"}},
  "note": "Read-outs that look alike come from different tables or passages of the source. Positions of bridges follow the written chain, without caps; N, C: chain ends. No end group written: not given here.",
  "data": [
    {"compound": "[Ca+2]", "note": "[calcium]", "values": [
      {"measurement": "HBD-2 mRNA expression", "setting": "hBD-2 mRNA [1]", "result": "sufficient to induce"},
      {"measurement": "HBD-3 mRNA expression", "setting": "hBD-3 mRNA [2]", "result": "sufficient to induce"}
    ]},
    {"compound": "CC[C@H](C)[C@H](N)C(=O)O", "note": "[isoleucine-1]", "values": [
      {"measurement": "transcription of epithelial beta defensin genes", "setting": "[3]", "result": "can activate transcription"}
    ]},
    {"compound": "CCCCCCCCCCCCCC(=O)O[C@@H]1[C@@H](C)[C@@]2(O)[C@@H](C=C(CO)C[C@]3(O)C(=O)C(C)=C[C@@H]23)[C@@H]2C(C)(C)[C@]12OC(C)=O", "note": "[phorbol myristate acetate]", "values": [
      {"measurement": "HBD-1 mRNA expression", "setting": "hBD-1 mRNA", "result": "not"},
      {"measurement": "HBD-2 mRNA expression", "setting": "hBD-2 mRNA [4]", "result": "induces"},
      {"measurement": "HBD-3 mRNA expression", "setting": "hBD-3 mRNA [5]", "result": "induces"}
    ]},
    {"compound": "GIGDPVTCLKSGAICHPVFCPRRYKQIGTCGLPGTKCCKKP (disulfide 8-37, 15-30, 20-38) [hBD-2]", "values": [
      {"measurement": "inhibition (RT activity relative to positive control)", "setting": "HIV-1 R5 B-93US142; [6]", "result": 15, "unit": "%"},
      {"measurement": "inhibition (RT activity relative to positive control)", "setting": "HIV-1 X4 B-HXB2; [6]", "result": 61, "unit": "%"}
    ]},
    {"compound": "hBD-1: Recombinant human β-defensin 1 produced from infection of Sf21 cells with baculovirus constructs (DHYNCVSSGGQCLYSACPIFTKIQGTCYRGKAKCCK; ends and bridges not checked; cysteine pairing not given here; UniProt P60022 33-68, looked up)", "values": [
      {"measurement": "effect on surface expression of CXCR4", "setting": "CXCR4", "result": "did not affect"},
      {"measurement": "effect on CCR5 expression", "setting": "CCR5", "result": "not altered"},
      {"measurement": "anti-HIV-1 activity", "setting": "HIV-1 R5 B-93US142; [7]", "result": "no effect"},
      {"measurement": "anti-HIV-1 activity", "setting": "HIV-1 X4 B-HXB2; [7]", "result": "no effect"}
    ]}
  ]
}
